{"source": "patent US20250340577A1", "about": "“BETA-LACTOMASE INHIBITORS AND USES THEREOF” (Case Western Reserve University, priority 2021, published 2025)", "key": {"[1]": {"tested_on": "NDM-1 pHSG298", "experiment": "MIC of antibiotics in combination with 10 μg/mL of ceftolozane-like BATSIs", "type": "cell-based", "details": "IMI alone"}, "[2]": {"tested_on": "HUMC1 Abspp", "experiment": "MIC of antibiotics in combination with 10 μg/mL of ceftolozane-like BATSIs", "type": "cell-based", "details": "SULB alone"}, "[3]": {"tested_on": "blaPDC-3E221K", "experiment": "MIC of antibiotics in combination with 10 μg/mL of ceftolozane-like BATSIs", "type": "cell-based", "details": "CAZ alone"}, "[4]": {"tested_on": "blaCMY-2", "experiment": "MIC of antibiotics in combination with 10 μg/mL of ceftolozane-like BATSIs", "type": "cell-based", "details": "CAZ alone"}, "[5]": {"tested_on": "18SH", "experiment": "MIC of antibiotics in combination with 10 μg/mL of ceftolozane-like BATSIs", "type": "cell-based", "details": "CAZ alone"}, "[6]": {"tested_on": "blaADC-7", "experiment": "MIC of antibiotics in combination with 10 μg/mL of ceftolozane-like BATSIs", "type": "cell-based", "details": "CAZ alone"}, "[7]": {"tested_on": "M9 clinical", "experiment": "MIC of antibiotics in combination with 10 μg/mL of ceftolozane-like BATSIs", "type": "cell-based", "details": "CAZ alone"}, "[8]": {"tested_on": "K. pneumoniae Kp1", "experiment": "Survival of mice infected IV with K. pneumoniae Kp1", "type": "in vivo", "details": "C57BL/6 mice infected IV with KP1; treated IP at infection, 18 h and 24 h; cefepime 100 mg/kg/dose; cefepime+MB076 at 1:4 ratio", "description": "FIG. 1 illustrates the survival curve of mice infected IV with K. pneumoniae Kp1 and treated with cefepime alone or in combination with MB076. Five male C57BL/6 mice per treatment were infected IV via the tail-vein with 2.1×10^8 CFU/mouse and treated with placebo control (phosphate-buffered saline), cefepime (100 mg/kg/dose), or cefepime and MB076.\nTo determine […] activity of MB076 we used cefepime with or without MB076 in mice infected IV with the pan drug resistant strain KP1 and treated IP at the time of infection with placebo control, cefepime, or cefepime+MB076 (at 1:4 ratio). Doses were repeated the following morning and afternoon (18 h and 24 h after infection, respectively). All mice treated with placebo or cefepime alone died, whereas all mice treated with either ratio of MB076 plus cefepime survived."}, "[9]": {"tested_on": "K. pneum blaKPC-2", "experiment": "MIC of antibiotics in combination with 10 μg/mL of ceftolozane-like BATSIs", "type": "cell-based", "details": "FEP alone"}, "[10]": {"tested_on": "K. pneum KPC-Kpn", "experiment": "MIC of antibiotics in combination with 10 μg/mL of ceftolozane-like BATSIs", "type": "cell-based", "details": "FEP alone"}, "[11]": {"tested_on": "Klebsiella pneumonia/FDA-CDC AR-BANK#0097", "experiment": "MIC of MB076 alone or in combination with cefepime or meropenem", "type": "cell-based", "details": "Klebsiella pneumoniae; single agent; read-out: MIC", "description": "(§1) MICs were determined by the Agar microdilution method, following CLSI guidelines. Compounds were tested at fixed concentration of 4 ug/ml in combination with cefepime."}, "[12]": {"tested_on": "Klebsiella pneumonia/BAA-1705", "experiment": "MIC of MB076 alone or in combination with cefepime or meropenem", "type": "cell-based", "details": "Klebsiella pneumoniae, BAA1705; single agent; read-out: MIC", "description": "as §1"}, "[13]": {"tested_on": "Klebsiella pneumonia/FDA-CDC AR-BANK#0098", "experiment": "MIC of MB076 alone or in combination with cefepime or meropenem", "type": "cell-based", "details": "Klebsiella pneumoniae; single agent; read-out: MIC", "description": "as §1"}, "[14]": {"tested_on": "blaCTXM-9", "experiment": "MIC of antibiotics in combination with 10 μg/mL of ceftolozane-like BATSIs", "type": "cell-based", "details": "FEP alone"}, "[15]": {"tested_on": "E. coli DH10B pBC-SK PDC-3", "experiment": "MIC with cefepime, agar microdilution, CLSI", "type": "cell-based", "details": "cefepime alone", "description": "(§2) Minimum inhibitory concentration (MIC) of MB076 and derivatives (PCF_038-043) in combination with cefepime.\nas §1"}, "[16]": {"tested_on": "K. pneumoniae ST258 B5", "experiment": "MIC with cefepime, agar microdilution, CLSI", "type": "cell-based", "details": "cefepime alone; KPC-2", "description": "as §2, §1"}, "[17]": {"tested_on": "K. pneumoniae ST258 C3", "experiment": "MIC with cefepime, agar microdilution, CLSI", "type": "cell-based", "details": "cefepime alone; KPC-3", "description": "as §2, §1"}, "[18]": {"tested_on": "K. pneumoniae 253", "experiment": "MIC with cefepime, agar microdilution, CLSI", "type": "cell-based", "details": "cefepime alone; TEM-12, SHV-5, CTX-M", "description": "as §2, §1"}, "[19]": {"tested_on": "E. coli ATCC BAA202", "experiment": "MIC with cefepime, agar microdilution, CLSI", "type": "cell-based", "details": "cefepime alone; SHV-1", "description": "as §2, §1"}, "[20]": {"tested_on": "K. pneumoniae 34700", "experiment": "MIC with cefepime, agar microdilution, CLSI", "type": "cell-based", "details": "cefepime alone; CTX-M-15, SHV, TEM", "description": "as §2, §1"}, "[21]": {"tested_on": "E. coli 29838", "experiment": "MIC with cefepime, agar microdilution, CLSI", "type": "cell-based", "details": "cefepime alone; CTX-M-14, TEM-1", "description": "as §2, §1"}, "[22]": {"tested_on": "A. baumannii 0057", "experiment": "MIC with cefepime, agar microdilution, CLSI", "type": "cell-based", "details": "cefepime alone; ADC-7", "description": "as §2, §1"}, "[23]": {"tested_on": "E. coli DH10B pBC-SK control", "experiment": "MIC with cefepime, agar microdilution, CLSI", "type": "cell-based", "details": "cefepime alone; B-lactamases none", "description": "as §2, §1"}, "[24]": {"tested_on": "K. pneumoniae 255", "experiment": "MIC with cefepime, agar microdilution, CLSI", "type": "cell-based", "details": "cefepime alone; TEM-1, SHV-2", "description": "as §2, §1"}, "[25]": {"tested_on": "K. pneumoniae ST17", "experiment": "MIC with cefepime, agar microdilution, CLSI", "type": "cell-based", "details": "cefepime alone; KPC-2, TEM, SHV, CTX-M-Group 1", "description": "as §2, §1"}, "[26]": {"tested_on": "E. coli pLTCF2", "experiment": "MIC with cefepime, agar microdilution, CLSI", "type": "cell-based", "details": "cefepime alone", "description": "as §2, §1"}, "[27]": {"tested_on": "E. coli DH10B pBC-SK KPC-2", "experiment": "MIC with cefepime, agar microdilution, CLSI", "type": "cell-based", "details": "cefepime alone", "description": "as §2, §1"}, "[28]": {"tested_on": "K. pneumoniae original KPC-2", "experiment": "MIC with cefepime, agar microdilution, CLSI", "type": "cell-based", "details": "cefepime alone", "description": "as §2, §1"}, "[29]": {"tested_on": "E. coli DH10B pBC-SK SHV-2", "experiment": "MIC with cefepime, agar microdilution, CLSI", "type": "cell-based", "details": "cefepime alone", "description": "as §2, §1"}, "[30]": {"tested_on": "E. coli DH10B pBC-SK P99", "experiment": "MIC with cefepime, agar microdilution, CLSI", "type": "cell-based", "details": "cefepime alone", "description": "as §2, §1"}, "[31]": {"tested_on": "K. pneumoniae 427", "experiment": "MIC with cefepime, agar microdilution, CLSI", "type": "cell-based", "details": "cefepime alone; TEM-1, SHV-1, CTX-M-3", "description": "as §2, §1"}, "[32]": {"tested_on": "K. pneumoniae 266", "experiment": "MIC with cefepime, agar microdilution, CLSI", "type": "cell-based", "details": "cefepime alone; SHV-5", "description": "as §2, §1"}, "[33]": {"tested_on": "E. coli pLTCF1", "experiment": "MIC with cefepime, agar microdilution, CLSI", "type": "cell-based", "details": "cefepime alone; CTX-M group 9", "description": "as §2, §1"}}}
{"compound": "C[C@@H](O)[C@H]1C(=O)N2C(C(=O)O)=C(SCCN=CN)C[C@H]12", "note": "[IMI]", "values": [{"measurement": "MIC of antibiotic", "setting": "[1]", "result": "IMI 8 mg/mL"}]}
{"compound": "CC1(C)[C@H](C(=O)O)N2C(=O)C[C@H]2S1(=O)=O", "note": "[SULB, sulbactam]", "values": [{"measurement": "MIC of antibiotic", "setting": "[2]", "result": "SULB 4 mg/mL"}]}
{"compound": "CC(C)(O/N=C(\\C(=O)N[C@@H]1C(=O)N2C(C(=O)[O-])=C(C[n+]3ccccc3)CS[C@H]12)c1csc(N)n1)C(=O)O", "note": "[CAZ, ceftazidime, reference compound]", "values": [{"measurement": "MIC of antibiotic", "setting": "[3]", "result": "CAZ 32 mg/mL"}, {"measurement": "MIC of antibiotic", "setting": "[4]", "result": "CAZ 128 mg/mL"}, {"measurement": "MIC of antibiotic", "setting": "[5]", "result": "CAZ 64 mg/mL"}, {"measurement": "MIC of antibiotic", "setting": "[6]", "result": "CAZ 16 mg/mL"}, {"measurement": "MIC of antibiotic", "setting": "[7]", "result": "CAZ >32 mg/mL"}]}
{"compound": "CO/N=C(\\C(=O)N[C@@H]1C(=O)N2C(C(=O)[O-])=C(C[N+]3(C)CCCC3)CS[C@H]12)c1csc(N)n1", "note": "[Cefepime, cefepime, reference compound]", "values": [{"measurement": "Survival of infected mice", "setting": "[8]", "result": "died"}, {"measurement": "MIC of antibiotic", "setting": "[9]", "result": "16/32"}, {"measurement": "MIC of antibiotic", "setting": "[10]", "result": "FEP 32 mg/mL"}, {"measurement": "MIC", "setting": "[11]", "result": "> 32", "unit": "µg/mL"}, {"measurement": "MIC", "setting": "[12]", "result": "> 32", "unit": "µg/mL"}, {"measurement": "MIC", "setting": "[13]", "result": 32, "unit": "µg/mL"}, {"measurement": "MIC of antibiotic", "setting": "[14]", "result": "FEP 8 mg/mL"}, {"measurement": "MIC of cefepime", "setting": "[15]", "result": "< 0.25", "unit": "µg/mL"}, {"measurement": "MIC of cefepime", "setting": "[16]", "result": 32, "unit": "µg/mL"}, {"measurement": "MIC of cefepime", "setting": "[17]", "result": 8, "unit": "µg/mL"}, {"measurement": "MIC of cefepime", "setting": "[18]", "result": 32, "unit": "µg/mL"}, {"measurement": "MIC of cefepime", "setting": "[19]", "result": 1, "unit": "µg/mL"}, {"measurement": "MIC of cefepime", "setting": "[20]", "result": 32, "unit": "µg/mL"}, {"measurement": "MIC of cefepime", "setting": "[21]", "result": 4, "unit": "µg/mL"}, {"measurement": "MIC of cefepime", "setting": "[22]", "result": 64, "unit": "µg/mL"}, {"measurement": "MIC of cefepime", "setting": "[23]", "result": "< 0.25", "unit": "µg/mL"}, {"measurement": "MIC of cefepime", "setting": "[24]", "result": 4, "unit": "µg/mL"}, {"measurement": "MIC of cefepime", "setting": "[25]", "result": 64, "unit": "µg/mL"}, {"measurement": "MIC of cefepime", "setting": "[26]", "result": 1, "unit": "µg/mL"}, {"measurement": "MIC of cefepime", "setting": "[27]", "result": 8, "unit": "µg/mL"}, {"measurement": "MIC of cefepime", "setting": "[28]", "result": 8, "unit": "µg/mL"}, {"measurement": "MIC of cefepime", "setting": "[29]", "result": 4, "unit": "µg/mL"}, {"measurement": "MIC of cefepime", "setting": "[30]", "result": "< 0.25", "unit": "µg/mL"}, {"measurement": "MIC of cefepime", "setting": "[31]", "result": 8, "unit": "µg/mL"}, {"measurement": "MIC of cefepime", "setting": "[32]", "result": 2, "unit": "µg/mL"}, {"measurement": "MIC of cefepime", "setting": "[33]", "result": 8, "unit": "µg/mL"}]}
